Like-named read-outs stand apart in the source and are kept apart here.
Experiments:
human IDO [1] = target: T1, human IDO (Homo sapiens, UniProt P14902); assay: Determination of whether the inhibitor is reversible (v~[E] plot); assay type: biochemical; conditions: constant inhibitor concentration, different IDO enzyme amounts, 300 mM L-tryptophan, 37° C. 30 minutes
T1 construct: made in house; host or cells: Escherichia coli
Description: In case that the inhibitor concentration was constant, a series of enzymes of different concentrations are reacted with the inhibitor and the reaction rate was measured. The reaction rate to the enzyme concentration (v˜[E]) was plotted, thus it can be determined that whether it is a reversible inhibitor according to the curve characteristics.
The mixture was incubated under 37° C. for 5 min, then different volumes of IDO enzymes were added. The reaction was conducted at 37° C. for 30 minutes and was terminated by adding 30% (w/v) trichloroacetic acid (200 μl). The reaction system was heated at 65° C. for 15 minutes to convert the formyl kynurenine to kynurenine, and then rotated under 12000 rpm for 10 minutes. The supernatant was taken to mix with isometric solution of p-dimethyl amidogen benzaldehyde in acetic acid (2% (w/v)). The off scale reading at 490 nm was observed using a Microplate Reader. The v˜[E] was plotted.

human IDO [2] = target: T1, human IDO; assay: biochemical
Description: The reaction was conducted under 37° C. for 30 minutes and was terminated by 30% (w/v) trichloroacetic acid (200 μl). The reaction system was heated under 65° C. for 15 minutes to convert the formyl kynurenine into kynurenine, and then rotated under 12000 rpm for 10 minutes. The supernatant was taken to mix with isometric p-dimethyl amidogen benzaldehyde in acetic acid (2% (w/v)) solution. The yellow color caused by the reaction of the mixture and kynurenine, can be observed at 490 nm by using Microplate Reader. The results were calculated with IC50 calculation software (see Table 1).

[3] = 150 mM substrate L-tryptophan, pH 6.5, 37° C. 30 minutes, read at 490 nm, read-out: IC50(in vitro)

T1 sequence (P14902 whole entry): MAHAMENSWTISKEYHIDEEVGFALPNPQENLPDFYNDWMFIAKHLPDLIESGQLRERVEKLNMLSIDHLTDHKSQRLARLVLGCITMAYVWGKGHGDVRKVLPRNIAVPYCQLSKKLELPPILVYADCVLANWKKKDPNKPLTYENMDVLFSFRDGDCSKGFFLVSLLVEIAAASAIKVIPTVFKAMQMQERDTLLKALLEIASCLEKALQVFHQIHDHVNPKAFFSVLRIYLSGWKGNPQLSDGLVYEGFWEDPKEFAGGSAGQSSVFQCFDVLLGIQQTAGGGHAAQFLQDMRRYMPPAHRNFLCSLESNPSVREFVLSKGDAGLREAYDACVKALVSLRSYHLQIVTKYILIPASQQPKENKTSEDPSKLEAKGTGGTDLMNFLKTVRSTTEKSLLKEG

CN(C)c1ccc2nc3n(c(=O)c2c1)-c1ccc(F)cc1C3=O [Compound 7]
Reversible Inhibitor or Not (human IDO [1]): Reversible
IC50 (human IDO [2]; [3]): 10.3 µM

O=C1c2c(N3CCNCC3)cccc2-n2c1nc1ccccc1c2=O [Comparison 1, 7-piperazine tryptanthrin, reference compound]
Reversible Inhibitor or Not (human IDO [1]): Reversible
IC50 (human IDO [2]): 54.3 µM

CN1CCN(c2ccc3nc4n(c(=O)c3c2)-c2ccccc2C4=O)CC1 [Compound 11]
Reversible Inhibitor or Not (human IDO [1]): Reversible
IC50 (human IDO [2]; [3]): 8.01 µM

O=C1c2cc(F)ccc2-n2c1nc1ccc(N3CCCCC3)cc1c2=O [Compound 9]
Reversible Inhibitor or Not (human IDO [1]): Reversible
IC50 (human IDO [2]; [3]): 1.8 µM

O=C1c2cc(F)ccc2-n2c1nc1ccc(N3CCNCC3)cc1c2=O [Compound 5]
Reversible Inhibitor or Not (human IDO [1]): Reversible
IC50 (human IDO [2]; [3]): 1.19 µM

CN1CCN(c2ccc3nc4n(c(=O)c3c2)-c2ccc(F)cc2C4=O)CC1 [Compound 6]
Reversible Inhibitor or Not (human IDO [1]): Reversible
IC50 (human IDO [2]; [3]): 2.2 µM
